Assays:
Test in all cases: relative viability (nuclei count vs DMSO), 5 days (fraction); higher = more cells survive
Erlotinib + OSI-027 = compound: C#Cc1cccc(Nc2ncnc3cc(OCCOC)c(OCCOC)cc23)c1 [Erlotinib] + COc1cccc2cc(-c3nc([C@H]4CC[C@H](C(=O)O)CC4)n4ncnc(N)c34)[nH]c12 [OSI-027] (partner 0.5 µM)
Summary of the method: (§1)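 After 5 days of treatment, lung cancer cells in 1536-well plates were fixed and stained in a single step (final 0.05% Triton X-100, 1% formaldehyde, 1 ug/ml Hoechst) and their nuclei counted on 4× images. Treatment had been applied by pin tool the day after seeding as one drug alone or as a fixed anchor-drug dose with five library-drug doses (not always all listed) in √10 steps. Relative viability is the nuclei count of treated wells divided by that of vehicle wells, and values are medians of duplicate plates.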

AT9283 + Pictilisib = compound: O=C(Nc1c[nH]nc1-c1nc2ccc(CN3CCOCC3)cc2[nH]1)NC1CC1 [AT9283] + CS(=O)(=O)N1CCN(Cc2cc3nc(-c4cccc5[nH]ncc45)nc(N4CCOCC4)c3s2)CC1 [Pictilisib] (partner 1 µM)
Summary of the method: as §1

Erlotinib + Vorinostat = compound: C#Cc1cccc(Nc2ncnc3cc(OCCOC)c(OCCOC)cc23)c1 [Erlotinib] + O=C(CCCCCCC(=O)Nc1ccccc1)NO [Vorinostat] (partner 1 µM)
Summary of the method: as §1

AT9283 + Olaparib = compound: O=C(Nc1c[nH]nc1-c1nc2ccc(CN3CCOCC3)cc2[nH]1)NC1CC1 [AT9283] + O=C(c1cc(Cc2n[nH]c(=O)c3ccccc23)ccc1F)N1CCN(C(=O)C2CC2)CC1 [Olaparib] (partner 8 µM)
Summary of the method: as §1

AT9283 + Foretinib = compound: O=C(Nc1c[nH]nc1-c1nc2ccc(CN3CCOCC3)cc2[nH]1)NC1CC1 [AT9283] + COc1cc2c(Oc3ccc(NC(=O)C4(C(=O)Nc5ccc(F)cc5)CC4)cc3F)ccnc2cc1OCCCN1CCOCC1 [Foretinib] (partner 0.25 µM)
Summary of the method: as §1

Cell Line	relative viability (Erlotinib + OSI-027; first compound 0.02 µM)	relative viability (Erlotinib + OSI-027; first compound 0.2 µM)	relative viability (Erlotinib + OSI-027; first compound 0.6325 µM)	relative viability (Erlotinib + OSI-027; first compound 2 µM)	relative viability (AT9283 + Pictilisib; first compound 0.003 µM)	relative viability (AT9283 + Pictilisib; first compound 0.03 µM)	relative viability (AT9283 + Pictilisib; first compound 0.09487 µM)	relative viability (AT9283 + Pictilisib; first compound 0.3 µM)	relative viability (Erlotinib + Vorinostat; first compound 0.2 µM)	relative viability (Erlotinib + Vorinostat; first compound 0.6325 µM)	relative viability (Erlotinib + Vorinostat; first compound 2 µM)	relative viability (AT9283 + Olaparib; first compound 0.003 µM)	relative viability (AT9283 + Olaparib; first compound 0.03 µM)	relative viability (AT9283 + Olaparib; first compound 0.09487 µM)	relative viability (AT9283 + Olaparib; first compound 0.3 µM)	relative viability (AT9283 + Foretinib; first compound 0.003 µM)	relative viability (AT9283 + Foretinib; first compound 0.03 µM)	relative viability (AT9283 + Foretinib; first compound 0.09487 µM)	relative viability (AT9283 + Foretinib; first compound 0.3 µM)	relative viability (Erlotinib + Vorinostat; first compound 0.02 µM)
PC-3 [JPC-3]	0.735	0.334	0.178	0.215	0.673	0.631	0.542	0.376	0.441	0.351	0.362	1.31	1.03	0.844	0.607	1	0.974	0.591	0.543	
PC-14	0.43	0.0949	0.136	0.0777	0.534	0.657	0.0566	0.0616	0.0858	0.0926	0.061	0.264	0.151	0.074	0.0669	0.956	0.796	0.581	0.16	0.428
RERF-LC-KJ	0.528	0.417	0.394	0.337	0.627	0.24	0.171	0.164	0.605	0.624	0.453	0.962	0.485	0.267	0.237	0.922	0.498	0.279	0.22	0.716
SK-LU-1	0.305	0.369	0.302	0.253	0.603	0.348	0.217	0.197	0.729	0.899	0.718	0.495	0.479	0.259	0.258	0.925	0.385	0.214	0.27	1.01
SK-MES-1	0.615	0.415	0.356	0.221	0.345	0.314	0.158	0.147	0.619	0.672	0.491	0.783	0.677	0.415	0.144	0.924	0.863	0.604	0.143	1.14
SW 1573	0.651	0.503	0.597	0.44	0.453	0.251	0.2	0.127	0.605	0.824	0.405	0.485	0.159	0.159	0.14	0.621	0.423	0.239	0.233	0.652
UMC-11		0.412	0.492	0.424	0.805	0.114	0.111	0.191	0.403	0.392	0.3	0.712	0.218	0.213	0.23	0.996	0.181	0.175	0.184	0.388

Reference: the supplement of paper PMC10307832
